Source: patent US10925876B2, “Methods for using triazolo-pyrazinyl soluble guanylate cyclase activators in fibrotic disorders” (Merck Sharp & Dohme Corp., priority 2016, dated 2021)

Legend:
[1] = test system: Spontaneously hypertensive rats (SHR); test: Acute Efficacy in Spontaneously Hypertensive Rats (SHR), telemetry blood pressure; type: in vivo, rat; settings: single oral gavage
In short: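 Male SHR fitted with aortic telemetry transmitters and recovered 14 days; conscious blood pressure sampled 30 s every 10 min. Single oral gavage dose (vehicle 10% transcutol/20% Cremophor/70% water); hourly SBP change versus prior-day vehicle baseline, reported as maximum peak decrease.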

sGC α1/β1 heterodimer = biological target: T1, sGC α1/β1 heterodimer (Homo sapiens, UniProt Q02108+Q02153); test: Cell-Based sGC Functional Assay (CASA Assay), cGMP generation in CHO-K1/sGC cells;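 further: reference Compound A is a published heme-dependent sGC activator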; settings: maximum cGMP production of Compound A set to 100% activation, read-out: % Act. (percent activation relative to Compound A)
T1 construct: expressed in transfected cells
T1 sequence (Q02108 1-690): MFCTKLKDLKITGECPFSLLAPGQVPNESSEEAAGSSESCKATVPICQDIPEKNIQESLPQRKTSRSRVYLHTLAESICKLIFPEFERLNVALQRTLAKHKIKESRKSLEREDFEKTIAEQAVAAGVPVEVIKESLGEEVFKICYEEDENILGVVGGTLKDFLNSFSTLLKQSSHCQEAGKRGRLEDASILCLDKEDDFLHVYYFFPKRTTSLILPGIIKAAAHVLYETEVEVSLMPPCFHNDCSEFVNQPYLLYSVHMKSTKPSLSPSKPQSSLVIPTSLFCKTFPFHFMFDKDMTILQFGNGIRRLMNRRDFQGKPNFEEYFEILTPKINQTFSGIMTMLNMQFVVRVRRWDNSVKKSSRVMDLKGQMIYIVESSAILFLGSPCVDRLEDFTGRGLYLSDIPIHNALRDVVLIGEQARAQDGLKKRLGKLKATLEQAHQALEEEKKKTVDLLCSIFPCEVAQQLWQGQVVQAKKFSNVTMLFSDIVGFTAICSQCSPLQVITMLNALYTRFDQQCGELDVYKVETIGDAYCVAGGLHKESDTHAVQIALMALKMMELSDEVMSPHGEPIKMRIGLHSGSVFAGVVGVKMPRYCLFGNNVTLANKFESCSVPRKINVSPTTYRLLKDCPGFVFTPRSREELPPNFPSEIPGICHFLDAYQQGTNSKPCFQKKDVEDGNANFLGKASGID
T1 sequence (Q02153 1-619): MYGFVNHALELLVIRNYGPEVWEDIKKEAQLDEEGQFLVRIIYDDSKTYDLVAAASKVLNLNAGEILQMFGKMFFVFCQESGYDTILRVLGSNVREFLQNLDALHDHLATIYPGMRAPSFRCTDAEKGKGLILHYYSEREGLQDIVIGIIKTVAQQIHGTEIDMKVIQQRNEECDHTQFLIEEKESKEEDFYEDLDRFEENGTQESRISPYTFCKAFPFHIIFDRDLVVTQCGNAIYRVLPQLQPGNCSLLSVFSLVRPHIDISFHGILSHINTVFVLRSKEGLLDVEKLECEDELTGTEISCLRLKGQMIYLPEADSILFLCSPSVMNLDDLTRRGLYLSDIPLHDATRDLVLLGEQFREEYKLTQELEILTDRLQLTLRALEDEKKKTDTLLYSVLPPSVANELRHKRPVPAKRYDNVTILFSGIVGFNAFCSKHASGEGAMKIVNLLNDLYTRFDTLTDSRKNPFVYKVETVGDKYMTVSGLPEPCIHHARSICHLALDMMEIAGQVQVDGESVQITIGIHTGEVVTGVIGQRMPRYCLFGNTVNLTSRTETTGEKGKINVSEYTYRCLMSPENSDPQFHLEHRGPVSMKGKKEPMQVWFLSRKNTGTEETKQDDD
In short: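 CHO-K1 cells stably expressing human sGC α1/β1, 4×10^5/mL in EBSS with 5 mM MgCl2, 10 mM HEPES, 0.05% BSA, 0.5 mM IBMX, 2.5% DMSO; compounds 1 h at 37 °C ± 1 μM DETA-NO. cGMP by HTRF, expressed as % of reference Compound A maximum; IP and max fold induction from 4P fit.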

Structure (SMILES) | Emax (sGC α1/β1 heterodimer) | Maximum peak decrease of systolic blood pressure (SBP) in SHR, Cat. ([1]; P.O. 0.3 mpk) | Maximum peak decrease of systolic blood pressure (SBP) in SHR, Cat. ([1]; P.O. 1 mpk)
CCCCc1nc(-c2nc(O)c3c(n2)NC(=O)C3(C)c2ccc(Cl)c(F)c2)cn2ncnc12 (stereo not drawn) [Example 156B, 2-(8-butyl-[1,2,4]triazolo[1,5-a]pyrazin-6-yl)-5-(4-chloro-3-fluorophenyl)-4-hydroxy-5-methyl-5H-pyrrolo[2,3-d]pyrimidin-6(7H)-one] | 102% | C (Category C=SBP in SHRs >40 mmHg) | –
C[C@@]1(c2ccc(F)cc2)C(=O)Nc2nc(-c3cn4ncnc4c(CCCC(F)(F)F)n3)nc(O)c21 [Example 135A, 5-(4-fluorophenyl)-4-hydroxy-5-methyl-2-(8-(4,4,4-trifluorobutyl)-[1,2,4]triazolo[1,5-a]pyrazin-6-yl)-5,7-dihydro-6H-pyrrolo[2,3-d]pyrimidin-6-one] | 108% | – | B (Category B=SBP in SHRs 20-40 mmHg)
Cc1ccc(C2(C3CC3)C(=O)Nc3nc(-c4cn5ncnc5c(CCC(F)(F)C(F)(F)F)n4)nc(N)c32)nc1 (racemic) [Example 17B, 4-amino-5-cyclopropyl-5-(5-methylpyridin-2-yl)-2-(8-(3,3,4,4,4-pentafluorobutyl)-[1,2,4]triazolo[1,5-a]pyrazin-6-yl)-5H-pyrrolo[2,3-d]pyrimidin-6(7H)-one] | 119% | A (Category A=SBP in SHRs <20 mmHg) | –
Nc1nc(-c2cn3ncnc3c(CCCC(F)(F)F)n2)nc2c1C(c1ccc(C(F)F)cn1)(C1CC1)C(=O)N2 (racemic) [Example 44B, 4-amino-5-cyclopropyl-5-(5-(difluoromethyl)pyridin-2-yl)-2-(8-(4,4,4-trifluorobutyl)-[1,2,4]triazolo[1,5-a]pyrazin-6-yl)-5H-pyrrolo[2,3-d]pyrimidin-6(7H)-one] | 120% | – | B (Category B=SBP in SHRs 20-40 mmHg)

Now from value to compound, other results behind:

Emax (sGC α1/β1 heterodimer) | Structure (SMILES) | Maximum peak decrease of systolic blood pressure (SBP) in SHR, Cat. ([1]; P.O. 0.3 mpk) | Maximum peak decrease of systolic blood pressure (SBP) in SHR, Cat. ([1]; P.O. 1 mpk)
235% | Nc1nc(-c2cn3ncnc3c(CCCC(F)(F)F)n2)nc2c1C(c1ccc(F)cn1)(C1CC1)C(=O)N2 (stereo not drawn) [Example 34A, 4-amino-5-cyclopropyl-5-(5-fluoropyridin-2-yl)-2-(8-(4,4,4-trifluorobutyl)-[1,2,4]triazolo[1,5-a]pyrazin-6-yl)-5H-pyrrolo[2,3-d]pyrimidin-6(7H)-one] | C (Category C=SBP in SHRs >40 mmHg) | –
114% | CC1(c2ccccc2)C(=O)Nc2nc(-c3cn4ncnc4c(CCCC(F)(F)F)n3)nc(O)c21 (stereo not drawn) [Example 143B, 4-hydroxy-5-methyl-5-phenyl-2-(8-(4,4,4-trifluorobutyl)-[1,2,4]triazolo[1,5-a]pyrazin-6-yl)-5H-pyrrolo[2,3-d]pyrimidin-6(7H)-one] | – | B (Category B=SBP in SHRs 20-40 mmHg)
100% | CCCCc1nc(-c2nc(O)c3c(n2)NC(=O)[C@@]3(C)c2ccc(F)cc2)cn2ncnc12 [Example 154A, (S)-2-(8-butyl-[1,2,4]triazolo[1,5-a]pyrazin-6-yl)-5-(4-fluorophenyl)-4-hydroxy-5-methyl-5,7-dihydro-6H-pyrrolo[2,3-d]pyrimidin-6-one] | B (Category B=SBP in SHRs 20-40 mmHg) | –
196% | C[C@@]1(c2ccc(F)cc2)C(=O)Nc2nc(-c3cn4ncnc4c(CCC(F)(F)C(F)(F)F)n3)nc(N)c21 [Example 1A, (S)-4-Amino-5-(4-fluorophenyl)-5-methyl-2-(8-(3,3,4,4,4-pentafluorobutyl)-[1,2,4]triazolo[1,5-a]pyrazin-6-yl)-5H-pyrrolo[2,3-d]pyrimidin-6(7H)-one] | C (Category C=SBP in SHRs >40 mmHg) | –
154% | CC1(c2ccc(F)c(F)c2)C(=O)Nc2nc(-c3cn4ncnc4c(CCCC(F)(F)F)n3)nc(O)c21 (stereo not drawn) [Example 146B, 5-(3,4-difluorophenyl)-4-hydroxy-5-methyl-2-(8-(4,4,4-trifluorobutyl)-[1,2,4]triazolo[1,5-a]pyrazin-6-yl)-5H-pyrrolo[2,3-d]pyrimidin-6(7H)-one] | B (Category B=SBP in SHRs 20-40 mmHg) | –
